The values that follow come from US20250170236A1, “A NOVEL CATIONIC ADJUVANT COMPOSITION” (STATENS SERUM INSTITUT, priority 2022, published 2025).

For the assay, the system named is antigen-specific total IgG, IgG1 and IgG2c (H56 antigen). Also noted: species or system CB6F1 mice. As to conditions: mouse, in vivo.

On to CpG ODN 2006 [CpG2006], for which the “increased antibody responses (effect seen with DDA/MMG/CpG2006)” value was “not observed”.
